This note sets out measurements from PubChem BioAssay (NCI).

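The compound was tested at five concentrations on cells cultured in 96-well plates, with a 48-hour exposure period. TGI is the concentration that stops growth completely.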

Among the test systems are K-562 leukemia; M14 melanoma; TK-10 renal; SK-MEL-28 melanoma; OVCAR-3 ovarian; LOX IMVI melanoma; SN12C renal; RPMI-8226 leukemia; CCRF-CEM leukemia; NCI-H522 lung; SF-268 CNS; KM12 colon; HT29 colon; NCI/ADR-RES ovarian; SR leukemia.
Holding throughout (test): NCI tumour cell line growth inhibition, 48 h

As to `CC(Nc1ccc(Cl)c(Cl)c1)c1ccncc1` (stereo unspecified), the TGI in the test with K-562 leukemia is > 100 µM; in the test with M14 melanoma, 68.2 µM; in the test with TK-10 renal, > 100 µM; in the test with SK-MEL-28 melanoma, > 100 µM; in the test on OVCAR-3 ovarian it was 84.3 µM; in the test on LOX IMVI melanoma, 40 µM. Moreover, the TGI in the test with SN12C renal is > 100 µM; in the test on RPMI-8226 leukemia, 28.7 µM; in the test on CCRF-CEM leukemia it was > 100 µM; in the test with NCI-H522 lung, 37 µM; with SF-268 CNS, > 100 µM; in the test with KM12 colon, 40.1 µM. Besides, the TGI with HT29 colon was 72.4 µM; in the test with NCI/ADR-RES ovarian, > 100 µM.

Consider `S=c1ncc2c([nH]1)C1c3ccccc3C2c2ccccc21`, for which the TGI in the test with K-562 leukemia, in the test on M14 melanoma, in the test with TK-10 renal, in the test on SK-MEL-28 melanoma, in the test with SR leukemia and with OVCAR-3 ovarian was > 100 µM in each case. For the same compound, the TGI in the test on LOX IMVI melanoma, with SN12C renal, in the test on RPMI-8226 leukemia, with CCRF-CEM leukemia, in the test on NCI-H522 lung and with SF-268 CNS was > 100 µM each time. Also, the TGI with KM12 colon was > 100 µM.

Take `CC(C)C1NC(=O)CC(c2ccccc2)N(N=O)C1c1ccccc1` (stereo unspecified): the TGI with K-562 leukemia, with SK-MEL-28 melanoma, in the test with OVCAR-3 ovarian, in the test on LOX IMVI melanoma, with SN12C renal and in the test with RPMI-8226 leukemia was > 100 µM each time. Also, the TGI in the test on CCRF-CEM leukemia, in the test with NCI-H522 lung, in the test on SF-268 CNS, in the test on KM12 colon, with HT29 colon and in the test on NCI/ADR-RES ovarian was > 100 µM each time.

For the compound `CCOC(=O)c1c(NC(=S)Nc2ccc(Cl)cc2)sc2c1CCN(C)C2`, the TGI with K-562 leukemia, in the test with M14 melanoma, in the test on TK-10 renal, in the test with OVCAR-3 ovarian, with SN12C renal and in the test on RPMI-8226 leukemia was > 100 µM each time. The TGI in the test with CCRF-CEM leukemia, in the test with SF-268 CNS, in the test on KM12 colon, in the test on HT29 colon and in the test on NCI/ADR-RES ovarian was > 100 µM throughout.

Take `Nc1ncnc2c1ncn2C1CCC(CP(=O)(O)O)C1` (stereo unspecified): the TGI in the test with M14 melanoma, with TK-10 renal, in the test on SK-MEL-28 melanoma, in the test on OVCAR-3 ovarian, in the test on LOX IMVI melanoma and in the test with SN12C renal was > 100 µM throughout. In addition, the TGI in the test on RPMI-8226 leukemia, in the test with SF-268 CNS, in the test with KM12 colon, in the test with HT29 colon and in the test with NCI/ADR-RES ovarian was > 100 µM throughout.

Turning to `CCCCc1ccc(Nc2nc(OC)c3ncn(C4CC(O)C(CO)O4)c3n2)cc1` (stereo unspecified), the TGI in the test with K-562 leukemia is > 100 µM; with M14 melanoma, 85.6 µM; in the test with TK-10 renal, 50.1 µM; in the test with OVCAR-3 ovarian it was 54.3 µM; with LOX IMVI melanoma, 31.4 µM; in the test on SN12C renal it was 26.5 µM. The TGI stood at 71.9 µM in the test with RPMI-8226 leukemia; 34.9 µM in the test with CCRF-CEM leukemia; 3.83 µM in the test with NCI-H522 lung; 34.5 µM with SF-268 CNS; 32 µM in the test on KM12 colon; 37.1 µM with HT29 colon. The compound also yielded a TGI in the test with NCI/ADR-RES ovarian of 65.6 µM.

On to `Cn1c2ccccc2c(=O)c2c(O)cc3c(c21)C=CC(C)(C)O3`, for which the TGI in the test with K-562 leukemia, with SK-MEL-28 melanoma, with OVCAR-3 ovarian, with LOX IMVI melanoma, with SN12C renal and in the test on RPMI-8226 leukemia was > 25 µM each time. Besides, the TGI in the test on CCRF-CEM leukemia, in the test with NCI-H522 lung, in the test on SF-268 CNS, in the test on KM12 colon, in the test on HT29 colon and in the test on NCI/ADR-RES ovarian was > 25 µM throughout.

As to `O=C(c1ccc(Cl)cc1)c1ccc(OCCCOc2ccc(C(=O)c3ccc(Cl)cc3)cc2Cl)c(Cl)c1`, the TGI in the test on K-562 leukemia, with M14 melanoma, in the test with TK-10 renal, with SK-MEL-28 melanoma, in the test on SR leukemia and with OVCAR-3 ovarian was > 100 µM in each case. The TGI with LOX IMVI melanoma, in the test with SN12C renal, in the test on RPMI-8226 leukemia, in the test on CCRF-CEM leukemia, in the test with NCI-H522 lung and with KM12 colon was > 100 µM each time. Besides, the TGI with HT29 colon is > 100 µM.

As for `CCCSc1ccc2[nH]c(N3C(=O)/C(=C/c4ccc(SC)cc4)N=C3c3ccccc3)cc2c1`, the TGI is 5.43 µM in the test on K-562 leukemia; > 50 µM in the test with M14 melanoma; > 50 µM with TK-10 renal; > 50 µM with SK-MEL-28 melanoma; > 50 µM with OVCAR-3 ovarian; > 50 µM with LOX IMVI melanoma. Further, the TGI with SN12C renal was > 50 µM; in the test on CCRF-CEM leukemia it was > 45.8 µM; in the test on NCI-H522 lung, > 50 µM; in the test on SF-268 CNS, > 50 µM; with KM12 colon, 32.7 µM; with HT29 colon, > 50 µM. Besides, the TGI in the test with NCI/ADR-RES ovarian was > 50 µM.

Regarding `COc1cc(C2(c3ncc[nH]3)SSSCC2O)ccc1O` (stereo unspecified), the TGI in the test with K-562 leukemia is > 56.5 µM; in the test with SK-MEL-28 melanoma, > 100 µM; in the test with OVCAR-3 ovarian, > 71.7 µM; in the test with LOX IMVI melanoma, > 54.5 µM; in the test on SN12C renal it was > 100 µM; in the test on RPMI-8226 leukemia, > 100 µM. The TGI is > 53.6 µM in the test with CCRF-CEM leukemia; 90.6 µM with NCI-H522 lung; 23.8 µM in the test on SF-268 CNS; > 100 µM in the test on KM12 colon; > 100 µM in the test on HT29 colon; > 62.8 µM in the test on NCI/ADR-RES ovarian.

Turning to `N[C@@H]1CCN(c2c(F)cc3c(=O)c(C(=O)O)cn4c3c2Oc2cc3c(ccc5ccccc53)cc2-4)C1`, the TGI with K-562 leukemia was > 23.3 µM; with M14 melanoma, > 100 µM; in the test on SK-MEL-28 melanoma, > 93.2 µM; in the test on OVCAR-3 ovarian, 34.5 µM; in the test with LOX IMVI melanoma, > 63.7 µM; in the test on SN12C renal it was > 100 µM. Also, the TGI is > 100 µM in the test with RPMI-8226 leukemia; 0.234 µM with CCRF-CEM leukemia; 31.6 µM with NCI-H522 lung; > 100 µM with KM12 colon; > 100 µM in the test on HT29 colon; > 100 µM with NCI/ADR-RES ovarian.
